Source: patent publication US10898504B2, “Substituted nucleoside analogues for use as PRMT5 inhibitors” (Janssen Pharmaceutica NV, priority 2016, dated 2021)
Where “and” joins values, the source holds several entries; their conditions need not be identical. Equal entries are not always repeated.

Assays:
[1] = biological target: T1, PRMT5-MEP50 enzyme (Homo sapiens, UniProt O14744); assay: In vitro assay (Assay 1): PRMT5-MEP50 high throughput mass spectrometer assay, inhibition of SAH formation; assay type: biochemical; conditions: individual measurements shown, read-out: pIC50 Assay 1 (converted)
T1 construct: One virus expresses full length human PRMT5 with Flag-tag at N-terminus
Procedure, shortened: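 Flag-PRMT5/His-MEP50 full-length human complex (Sf9-expressed), 10 nM, with 1 μM SAM and 0.3 μM histone H2A in 20 mM Tris-HCl pH 8.5, 50 mM NaCl, 5 mM MgCl2, 1 mM DTT; 60 min at 30 °C, quenched with 1% formic acid. SAH quantified by RapidFire MS; IC50 from 11-point 1:2 series fitted to four-parameter Hill equation.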

[2] = system: A549 cells; assay: PD assay (Assay 2): inhibition of nuclear symmetric Arginine dimethylation (SYM10 immunohistochemistry) in A549 cells; assay type: cell-based; conditions: individual measurements shown; for IC50: Homo sapiens, A549, PD assay in A549 cells, read-out: pIC50 Assay 2 (converted); for pIC50 Assay 2: PD assay in A549 cells
Procedure, shortened: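 A549 cells dosed with a nine-point series (0.2% DMSO) for 48 h at 37° C, then fixed and immunostained with SYM10 anti-symmetric-dimethylarginine antibody, plus Hoechst and CellMask counterstains for high-content imaging. Nuclear signal normalized between DMSO and 10 μM reference-compound controls to derive IC50/pIC50.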

T1 sequence (O14744 whole entry): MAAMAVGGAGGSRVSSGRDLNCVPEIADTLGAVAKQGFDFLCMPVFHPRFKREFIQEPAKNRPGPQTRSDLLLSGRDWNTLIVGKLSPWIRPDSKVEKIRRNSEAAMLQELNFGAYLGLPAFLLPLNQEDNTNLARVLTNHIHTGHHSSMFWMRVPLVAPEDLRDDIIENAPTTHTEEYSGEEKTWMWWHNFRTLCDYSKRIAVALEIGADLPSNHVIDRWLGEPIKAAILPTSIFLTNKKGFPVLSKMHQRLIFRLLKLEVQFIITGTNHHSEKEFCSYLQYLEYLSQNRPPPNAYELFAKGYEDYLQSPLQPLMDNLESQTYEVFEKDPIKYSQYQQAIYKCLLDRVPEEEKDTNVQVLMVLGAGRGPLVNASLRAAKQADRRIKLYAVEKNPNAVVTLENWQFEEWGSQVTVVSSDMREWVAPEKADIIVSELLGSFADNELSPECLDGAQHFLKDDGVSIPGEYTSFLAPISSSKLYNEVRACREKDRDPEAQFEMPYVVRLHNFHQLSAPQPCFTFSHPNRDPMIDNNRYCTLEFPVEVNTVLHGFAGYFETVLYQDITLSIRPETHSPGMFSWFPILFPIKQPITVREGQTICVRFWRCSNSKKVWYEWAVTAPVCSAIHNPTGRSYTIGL
T1 sequence (Q9BQA1 whole entry partner): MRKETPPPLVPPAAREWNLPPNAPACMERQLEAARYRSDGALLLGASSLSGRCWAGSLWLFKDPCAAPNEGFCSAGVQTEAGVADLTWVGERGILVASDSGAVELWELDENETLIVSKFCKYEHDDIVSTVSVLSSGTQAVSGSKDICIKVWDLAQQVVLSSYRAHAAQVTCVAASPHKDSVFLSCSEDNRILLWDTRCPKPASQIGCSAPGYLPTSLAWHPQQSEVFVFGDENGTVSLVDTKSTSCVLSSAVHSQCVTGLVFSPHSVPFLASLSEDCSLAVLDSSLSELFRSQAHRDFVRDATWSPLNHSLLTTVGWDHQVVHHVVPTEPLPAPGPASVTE

| SMILES | IC50 [1] | IC50 [2] | pIC50 Assay 2 [2] |
| --- | --- | --- | --- |
| CC(C)C(=O)O[C@@H]1[C@H](OC(=O)C(C)C)[C@@H](CN2CC(F)(F)CC23CCNCC3)O[C@H]1c1ccc2c(N)ncnn12 [Compound 107] | > 10 µM | 0.126 µM | – |
| Nc1ncnc2c1ccn2[C@@H]1C[C@H](/C=C2\CCCC23CCNCC3)[C@@H](O)[C@H]1O [Compound 167] | 0.00316 µM and 0.00158 µM | 0.0302 µM | 7.68 |
| Nc1ncnc2c1ncn2[C@@H]1O[C@H](CN2CCCC23CNC3)[C@@H](O)[C@H]1O [Compound 91] | 1.23 µM | > 10 µM | – |
| Nc1ncnc2c1ccn2[C@@H]1O[C@H](CN2CCCC23CCN(Cc2cccnc2)CC3)[C@@H](O)[C@H]1O [Compound 172] | 0.309 µM | ~0.912 µM | – |
| Nc1ncnc2c1ccn2[C@@H]1O[C@H](CN2CC(F)(F)CC23CCN(CCc2ccc(F)cc2)CC3)[C@@H](O)[C@H]1O [Compound 183] | 0.0224 µM | ~0.24 µM | – |
| Cc1nc(N)c2ccn([C@@H]3O[C@H](CN4CCCC45CCN(C)CC5)[C@@H](O)[C@H]3O)c2n1 [Compound 30] | 0.2 µM | 1.74 µM | – |
| Nc1ncnc2c1ncn2[C@@H]1O[C@H](CN2CCCC23CCNCC3)[C@@H](O)[C@H]1O [Compound 76] | 0.0891 µM and 0.0324 µM and 0.0245 µM | – | ~5.65 and ~5.97 |
| CN1CCC2(CCCN2C[C@H]2O[C@@H](n3cc(I)c4c(N)ncnc43)[C@H](O)[C@@H]2O)CC1 [Compound 180] | 0.0102 µM | 0.269 µM | – |
| CN1CCC2(CC1)CC(F)(F)CN2CC1C[C@@H](n2ccc3c(N)ncnc32)[C@H](O)[C@@H]1O (stereo partly shown) [Compound 123] | 0.0224 µM | 0.162 µM | – |
| CCN1CCC2(CC1)CC(F)(F)CN2C[C@H]1O[C@@H](n2ccc3c(N)ncnc32)[C@H](O)[C@@H]1O [Compound 182] | 0.0155 µM | 0.501 µM | – |
| Nc1ncnc2c1ccn2[C@@H]1O[C@H](CN2CCCC23CCCNCC3)[C@@H](O)[C@H]1O (single isomer, unassigned) [Compound 117] | 0.0339 µM | 0.501 µM | – |
| NCC1CCCN(C[C@H]2O[C@@H](n3ccc4c(N)ncnc43)[C@H](O)[C@@H]2O)C1 (stereo partly shown) [Compound 51] | 0.0214 µM | 1 µM | – |
| Nc1ncnn2c([C@@H]3O[C@H](CN4CC(F)(F)CC45CCN(CCc4ccc(F)cc4)CC5)[C@@H](O)[C@H]3O)ccc12 [Compound 143] | 7.24 µM | 1.58 µM | – |
| Nc1ncnn2c([C@@H]3O[C@H](CN4CCOC5(CNC5)C4)[C@@H](O)[C@H]3O)ccc12 [Compound 109] | 2.24 µM | > 10 µM | – |
| CN1CCC2(CCCN2C[C@H]2O[C@@H](n3cc(F)c4c(N)ncnc43)[C@H](O)[C@@H]2O)CC1 [Compound 178] | 0.0513 µM | 0.12 µM | – |
| Nc1ncnn2c([C@@H]3O[C@H](CN4C(C(F)(F)F)CCC45CCNCC5)[C@@H](O)[C@H]3O)ccc12 (stereo partly shown) [Compound 137] | 1.15 µM | > 10 µM | – |
| Nc1ncnc2c1ccn2[C@@H]1O[C@H](CN2CCOC3(C2)CN(Cc2ccc(Cl)cc2)C3)[C@@H](O)[C@H]1O [Compound 93] | 3.02 µM | ~2.45 µM | – |
| Nc1ncnc2c1ncn2[C@@H]1O[C@H](CN2CC3(CCNC3)C2)[C@@H](O)[C@H]1O [Compound 84] | 77.6 µM | > 10 µM | – |
| CNC(=O)CCN1CCC2(CCCN2C[C@H]2O[C@@H](n3ccc4c(N)ncnc43)[C@H](O)[C@@H]2O)CC1 [Compound 195] | 0.537 µM | > 10 µM | – |
| Nc1ncnc2c1ncn2[C@@H]1O[C@H](CN2CCC23CNC3)[C@@H](O)[C@H]1O [Compound 89] | 2.75 µM | > 10 µM | – |
| CN1CC2(CCN(C[C@H]3O[C@@H](n4cnc5c(N)ncnc54)[C@H](O)[C@@H]3O)C2)C1 [Compound 5] | 8.13 µM | > 10 µM | – |
| Nc1ncnc2c1ccn2[C@@H]1O[C@H](CN2CCCC23CCNCC3)[C@@H](O)[C@H]1O [Compound 19] | 0.0437 µM and 0.0115 µM | – | 6.93 and 7.24 |
| Nc1ncnc2c1ccn2[C@@H]1O[C@H](CN2CCCC23CCN(Cc2ccc(F)cc2)CC3)[C@@H](O)[C@H]1O [Compound 171] | 1.62 µM | ~4.07 µM | – |
| CN1CC2(C1)CN(C[C@H]1O[C@@H](n3ccc4c(N)ncnc43)[C@H](O)[C@@H]1O)CCO2 [Compound 92] | 0.126 µM | ~1.38 µM | – |
| CN1CCC2(CCCN2C[C@H]2O[C@@H](n3cnc4c(N)ncnc43)[C@H](O)[C@@H]2O)C1 (stereo partly shown) [Compound 13] | 0.955 µM | > 10 µM | – |
| CN1CCCC12CN(C[C@H]1O[C@@H](n3cnc4c(N)ncnc43)[C@H](O)[C@@H]1O)C2 [Compound 7] | 66.1 µM | > 10 µM | – |
| Nc1ncnc2c1ccn2[C@@H]1O[C@H](CN2CCCC23CCN(Cc2cccnn2)CC3)[C@@H](O)[C@H]1O [Compound 199] | 0.891 µM | 1.86 µM | – |

| SMILES | IC50 [1] | IC50 [2] | pIC50 Assay 2 [2] |
| --- | --- | --- | --- |
| CN1CCC2(CC1)CC(F)(F)CN2C[C@H]1O[C@@H](n2ccc3c(N)ncnc32)[C@H](O)[C@@H]1O [Compound 181] | 0.0195 µM | 0.0661 µM | – |
| CN1CCC2(CCCN2C[C@H]2O[C@@H](n3cc(Br)c4c(N)ncnc43)[C@H](O)[C@@H]2O)CC1 [Compound 179] | 0.0316 µM | 0.0955 µM | – |
| CN(C)C[C@@H]1CC(F)(F)CCN1C[C@H]1O[C@@H](c2ccc3c(N)ncnn23)[C@H](O)[C@@H]1O [Compound 157] | > 10 µM | > 20 µM | – |
| NCC1CCN(C[C@H]2O[C@@H](n3ccc4c(N)ncnc43)[C@H](O)[C@@H]2O)C1 (stereo partly shown) [Compound 56] | 0.186 µM | ~10 µM | – |
| CNC(=O)CN1CCC2(CCCN2C[C@H]2O[C@@H](n3ccc4c(N)ncnc43)[C@H](O)[C@@H]2O)CC1 [Compound 197] | 6.46 µM | > 10 µM | – |
| Nc1ncnn2c([C@@H]3O[C@H](CN4CC(F)(F)C[C@H]4CCN4CCOCC4)[C@@H](O)[C@H]3O)ccc12 [Compound 154] | > 10 µM | > 10 µM | – |
| CN1CCC2(CCCN2C[C@H]2O[C@@H](c3ccc4c(N)ncnn34)[C@H](O)[C@@H]2O)CC1 [Compound 135] | 0.617 µM | ~1.05 µM | – |
| CCNc1ncnc2c1ccn2[C@@H]1O[C@H](CN2CCCC23CCN(C)CC3)[C@@H](O)[C@H]1O [Compound 205] | 1.62 µM | 7.08 µM | – |
| CN(C)CC[C@@H]1CC(F)(F)CN1C(=O)[C@H]1O[C@@H](c2ccc3c(N)ncnn23)[C@H](O)[C@@H]1O [Compound 162] | 3.8 µM | > 20 µM | – |
| O[C@@H]1[C@H](O)[C@@H](CN2CC(F)(F)CC23CCN(C2CC2)CC3)O[C@H]1n1ccc2c(Cl)ncnc21 [Compound 67] | 1.86 µM | ~6.17 µM | – |
| NCC[C@@H]1CC(F)(F)CCN1C[C@H]1O[C@@H](c2ccc3c(N)ncnn23)[C@H](O)[C@@H]1O [Compound 128] | 0.204 µM | > 10 µM | – |
| Nc1ncnc2c1ncn2[C@@H]1O[C@H](CN2CCC3(CNC3)C2)[C@@H](O)[C@H]1O [Compound 86] | 0.417 µM | > 10 µM | – |
| Nc1ncnn2c([C@@H]3O[C@H](CN4CCCC45CCN(CC(F)(F)F)CC5)[C@@H](O)[C@H]3O)ccc12 [Compound 141] | > 10 µM | > 10 µM | – |
| Nc1ncnn2c([C@@H]3O[C@H](CN4CCOC[C@H]4CN4CCCC4)[C@@H](O)[C@H]3O)ccc12 [Compound 131] | > 10 µM | > 20 µM | – |
| CN1CCCC2(C1)CN(C[C@H]1O[C@@H](n3cnc4c(N)ncnc43)[C@H](O)[C@@H]1O)C2 [Compound 12] | 67.6 µM | > 10 µM | – |
| Nc1ncnn2c([C@@H]3O[C@H](CN4CCC(F)(F)C[C@H]4CN4CCCC4)[C@@H](O)[C@H]3O)ccc12 [Compound 159] | > 10 µM | > 20 µM | – |
| Nc1ncnc2c1ccn2[C@@H]1O[C@H](CN2CCCC3(CNCCO3)C2)[C@@H](O)[C@H]1O (single isomer, unassigned) [Compound 33] | 0.24 µM | 12 µM | – |
| NC[C@@H]1CC(F)(F)CN1C[C@H]1O[C@@H](n2ccc3c(N)cccc32)[C@H](O)[C@@H]1O [Compound 71b] | 0.0513 µM | 0.562 µM | – |
| Nc1ncnn2c([C@@H]3O[C@H](CN4CC(F)(F)C[C@H]4CCN4CCCC4)[C@@H](O)[C@H]3O)ccc12 [Compound 155] | 2.51 µM | > 10 µM | – |
| COCCN1CCC2(CCCN2C[C@H]2O[C@@H](n3ccc4c(N)ncnc43)[C@H](O)[C@@H]2O)CC1 [Compound 194] | 0.427 µM | ~5.62 µM | – |
| NCC1CCCCN1C[C@H]1O[C@@H](n2ccc3c(N)ncnc32)[C@H](O)[C@@H]1O (stereo partly shown) [Compound 52] | 0.0102 µM | ~1.12 µM | – |
| CN1CCC2(CCCN2C[C@H]2O[C@@H](n3cnc4c(N)ncnc43)[C@H](O)[C@@H]2O)CC1 [Compound 1] | 0.219 µM | 7.24 µM | – |
| CN(C)CC[C@@H]1CC(F)(F)CN1C[C@H]1O[C@@H](c2ccc3c(N)ncnn23)[C@H](O)[C@@H]1O [Compound 152] | 2.95 µM | 4.07 µM | – |
| Nc1ncnc2c1ccn2[C@@H]1O[C@H](CN2CCCCC23CCNCC3)[C@@H](O)[C@H]1O [Compound 113] | 0.00813 µM | 0.145 µM | – |
| CN(C)C[C@@H]1COCCN1C[C@H]1O[C@@H](c2ccc3c(N)ncnn23)[C@H](O)[C@@H]1O [Compound 129] | > 10 µM | > 20 µM | – |
| Nc1ncnc2c1ccn2[C@@H]1O[C@H](CN2CCCC3(CCNC3)C2)[C@@H](O)[C@H]1O (stereo partly shown) [Compound 40] | 0.00631 µM | 0.407 µM | – |
| Nc1ncnc2c1ccn2[C@@H]1C[C@H](CC2=CCCC23CCNCC3)[C@@H](O)[C@H]1O [Compound 166] | 0.00186 µM and 0.00158 µM and 0.000631 µM | – | 7.41 and 7.92 and 7.87 |
